Where two headings read alike, the source gives them in different places.
Experiments:
BVDV = conditions: 16 mM, 30° C., 10 hours, pH 4.5; cited from earlier work
[1] = tested on: influenza virus A/Aichi (H3N2); format: cell-based; conditions: 0.15M, two minutes
[2] = tested on: Influenza A viruses/Aichi; format: cell-based, Influenza A virus
[3] = tested on: herpes simplex viruses type 1, strain F (HSV-1); assay: HSV-1 inactivation by buffer solutions on ice for one hour, residual titer by plaque assay on Vero cells; format: cell-based
Sendai viruses = assay: Sendai virus inactivation by buffer solutions on ice for one hour, residual titer by plaque assay on Vero cells; format: cell-based; conditions: 0.7M, pH 4.0, on ice one hour
[4] = Concentration 0.07 M, pH 4.0 (Example 4)
[5] = Concentration 0.14 M, pH 4.0 (Example 4)
[6] = Concentration 0.21 M, pH 4.0 (Example 4)
[7] = Concentration 0.28 M, pH 4.0 (Example 4)

CCCCCCCC(=O)O [caprylic acid]
titer of BVDV decreased to (BVDV): 1/10000

O=C1CC[C@@H](C(=O)O)N1 [PCA, pyrrolidone carboxylic acid]
Virus Inactivating Efficiency (LRV) ([1]; pH 4.0, 21.6° C.): 4.05 | Virus Inactivating Efficiency (LRV) ([1]; pH 4.2, 21.6° C.): 2.95

O=C([O-])CC(O)(CC(=O)[O-])C(=O)[O-].[Na+].[Na+].[Na+] [sodium citrate, reference compound]
Virus Inactivating Efficiency (LRV) ([1]; pH 3.8, 21.6° C.): 2.74 | Virus Inactivating Efficiency (LRV) ([1]; pH 4.0, 21.6° C.): 2.66 | Virus Inactivating Efficiency (LRV) ([1]; pH 4.2, 21.6° C.): 2.95 | maximum LRV ([1]; within the pH range of 3.8 to 4.2, 21.6° C.): ≤ 2.95 | Virus Inactivating Efficiency (LRV) ([2]; 0.1M, pH 3.5, on ice one hour): 2.1 | Virus Inactivating Efficiency (LRV) ([2]; 0.1M, pH 4.0, on ice one hour): 1.5 | Virus Inactivating Efficiency (LRV) ([2]; 0.1M, pH 4.3, on ice one hour): 1.3 | Virus Inactivating Efficiency (LRV) ([3]; 0.1M, pH 3.5, on ice one hour (Example 1)): >5.7 | Virus Inactivating Efficiency (LRV) ([3]; 0.1M, pH 3.5, on ice one hour (Example 1), listed as citrate buffer solution): > 5.7 | Virus Inactivating Efficiency (LRV) ([3]; 0.1M, pH 4.0, on ice one hour (Example 1)): 1.5 | Virus Inactivating Efficiency (LRV) ([3]; 0.1M, pH 4.3, on ice one hour (Example 1)): 0.1 | Virus Inactivating Efficiency (LRV) ([3]; 0.1M, pH 4.3, on ice one hour (Example 1), listed as citrate buffer solution): the inactivation did not take place

CCCC(=O)N[C@@H](CCCNC(=N)N)C(=O)O [Nα-butyroyl-L-arginine]
Virus Inactivating Efficiency (LRV) (Sendai viruses): >3.7 | Virus Inactivating Efficiency (LRV) ([1]; pH 4.0, 21.6° C.): 4.05 | Virus Inactivating Efficiency (LRV) ([2]; 0.7M, pH 4.0, on ice one hour): 3.7 | Virus Inactivating Efficiency (LRV) ([3]; 0.35M, pH 4.0 (Example 3)): >5.5 | Virus Inactivating Efficiency (LRV) [3, 4]: 0.7 | Virus Inactivating Efficiency (LRV) [3, 5]: 2.2 | Virus Inactivating Efficiency (LRV) [3, 6]: 4.3 | Virus Inactivating Efficiency (LRV) [3, 7]: 6.0

Cl.N=C(N)NCCC[C@H](N)C(=O)O [arginine hydrochloride]
Virus Inactivating Efficiency (LRV) ([1]; pH 4.0, 21.6° C.): 3.87 | Virus Inactivating Efficiency (LRV) ([2]; 0.7M, 20 mM sodium acetate, pH 4.0, on ice one hour): 3.7 | Virus Inactivating Efficiency (LRV) ([2]; 1M, pH 4.3, on ice one hour): 2.4 | Virus Inactivating Efficiency (LRV) ([3]; 0.35M, pH 4.0 (Example 3)): 4.2 | Virus Inactivating Efficiency (LRV) [3, 4]: 0.5 | Virus Inactivating Efficiency (LRV) [3, 5]: 1.1 | Virus Inactivating Efficiency (LRV) [3, 6]: 2.2 | Virus Inactivating Efficiency (LRV) [3, 7]: 3.1 | Virus Inactivating Efficiency (LRV) ([3]; Concentration 0.35 M, pH 4.0 (Example 4)): 4.5
